Source: US20240199676A1, “ANTIVIRAL COMPOUNDS AND METHODS OF MAKING AND USING THE SAME” (Gilead Sciences, Inc., priority 2022, published 2024)

Columns and labels:
[1] = GI S9 stability (Ex. Z), cyno intestinal S9; assay type: in vitro ADME; conditions: cynomolgus monkey, pooled intestinal S9 fractions; cyno intestinal S9, 1.0 mg/mL protein, 2 μM substrate, pH 7.4; read-out: GIS9 Cyno T½ (per Ex. Z)
Procedure: (§1) Example Z: GI S9 stability data:
(§2) Stock solutions of test compounds in dimethyl sulfoxide (DMSO) having a final concentration of 10 mM were prepared and used in all experiments. Sekisui XenoTech (Kansas City, KS) provided pooled intestinal S9 fractions. All other chemicals were purchased from Sigma-Aldrich (St. Louis, MO) or VWR (West Chester, PA). Internal Standard/Quench (IS/Q) used to stop reactions was 100 nM labetalol in (by volume) methanol (10%) and acetonitrile (90%).
(§3) Stability in Intestinal S9 Fractions: Duplicate aliquots of test compound or positive control substrate were added to S9 stock diluted with phosphate buffered saline (137 mM NaCl, 2.7 mM KCl, 10 mM phosphate buffer), pH 7.4, to obtain a protein concentration of 1.0 mg/mL. The metabolic reactions were initiated by the addition of the substrates to the S9 reaction mixture to a final concentration of 2 μM. At 0, 10, 20, 30, 60 and 120 min, 25 μL aliquots of the reaction mixture were transferred to plates containing 225 μl of IS/Q solution. After quenching, the plates were centrifuged at 3000×g for 30 minutes. 150 μL aliquots of each supernatant were dried down then reconstituted with 300 μL water. Aliquots (10 μL) of the prepared samples were analyzed on a Thermo Q-Exactive mass spectrometer as described below.
(§4) Liquid Chromatography—Mass Spectrometry: Quantification of test compounds and control substrate was performed by analyte/internal standard peak area ratio (PAR) values measured on a Thermo Q-Exactive mass spectrometer coupled to a Dionex UltiMate 3000 HPLC with a Leap Technologies HTC PAL autosampler. The column used for analysis was a Waters Acquity BEH C18 (1.7 μm particle size, 2.1×50 mm). Mobile phase A consisted of 0.1% (v/v) formic acid in water. Mobile phase B consisted of 0.1% (v/v) formic acid in acetonitrile. Elution of analytes was achieved by a series of linear gradients varying the proportions of A and B. The mass spectrometer was calibrated on a weekly basis and mass tolerance of 5 ppm was used.
(§5) Metabolic stabilities in S9 fractions were determined by measuring the rates of disappearance of test compound and positive control substrate.
(§6) Data (% of substrate remaining) were plotted on a semi-log scale and fitted using an exponential decline model:
(§7) Where Ct—% of substrate remaining at time=t; C0—% of substrate remaining at time=0; t—time; T½—half-life The Half-life (T½) is determined by the following equation: […]
(§8) Assuming a first-order reaction, the slope (k) is extrapolated from the aforementioned plotted data.

[2] = GI S9 stability (Ex. Z), dog intestinal S9; assay type: in vitro ADME; conditions: pooled intestinal S9 fractions; dog intestinal S9, 1.0 mg/mL protein, 2 μM substrate, pH 7.4; read-out: GIS9 DOG T½ (per Ex. Z)
Procedure: as §1, §2, §3, §4, §5, §6, §7, §8

[3] = tested on: Respiratory syncytial virus recombinant with luciferase (RSV-Luc5) in NHBE cells; experiment: NHBE RSV-Luc5 384-well Assay (EC50 RSVFLUC NHBE-384, Ex. U); assay type: cell-based; conditions: human respiratory syncytial virus, 72 h, read-out: EC50 RSV FLUC NHBE 384 (per Ex. U)
Excerpt: Example U. NHBE RSV-Luc5 384-well Assay (EC50 RSVFLUC NHBE-384)
Normal Human Bronchial Epithelial (NHBE) cells were purchased from Lonza (Walkersville, MD Cat #CC2540) and maintained in BEGM Bronchial Epithelial Cell Growth Medium BulletKit (Lonza CC-3170).
Cells were thawed, expanded, and were used for experiments at passage 2. Respiratory syncytial virus recombinant with luciferase (RSV-Luc5) (≥1×10^7 Infectious Units/ml (IU/ml) determined by TCID50) was purchased from Microbiologics (Saint Cloud, MN). Viral replication was determined in NHBE cells in the following manner.
Compounds are prepared in 100% DMSO in 384-well polypropylene plates (Greiner, Monroe, NC, Cat #784201) with 8 compounds per plate in grouped replicates of 4 at 10 serially diluted concentrations (1:3). The serially diluted compounds were transferred to low dead volume Echo plates (Labcyte, Sunnyvale, CA, Cat #LP-0200).
The test compounds were spotted to 384-well assay plates (Greiner, Monroe, NC, Cat#781091) at 200 nL per well. NHBE cells were harvested and suspended in BEGM Bronchial Epithelial Cell Growth Medium BulletKit and seeded to the pre-spotted assay plates at 5,000 cells per well in 30 μL. RSV-Luc5 virus was diluted in BEGM Bronchial Epithelial Cell Growth Medium BulletKit at 500,000 Infectious Units (IU) per mL and 10 μL per well was added to the assay plates containing cells and compounds, for an MOI of 1. The assay plates were incubated for 3 days at 37° C. and 5% CO2. At the end of incubation, One-Glo reagent (Promega, Madison, WI, Cat #E6120) was prepared. The assay plates and One-Glo reagent were equilibrated to room temperature for at least 15 minutes. 40 μL per well of One-Glo reagent was added and the plates were incubated at room temperature for 15 minutes before reading the luminescence signal on an EnVision multimode plate reader (Perkin Elmer, Waltham, MA). Remdesivir was used as positive control and DMSO was used as negative control. Values were normalized to the positive and negative controls (as 0% and 100% replication, respectively) and data was fitted using non-linear regression analysis by Gilead's dose response tool. The EC50 value for each compound was defined as the concentration reducing the viral replication by 50%.

| SMILES | half-life at 2 μM [1] [min] | half-life at 2 μM [2] [min] | EC50 [3] [µM] |
| --- | --- | --- | --- |
| CCCC(=O)OC[C@@]1(C#N)O[C@@H](c2ccc3c(N)ncnn23)[C@H](O)[C@@H]1O [Compound 6, ((2R,3S,4R,5S)-5-(4-aminopyrrolo[2,1-f][1,2,4]triazin-7-yl)-2-cyano-3,4-dihydroxytetrahydrofuran-2-yl)methyl butyrate] | 8 | 38 | 7.71 |
| N#C[C@]1(COC(=O)CC2CCC2)O[C@@H](c2ccc3c(N)ncnn23)[C@H](O)[C@@H]1O [Compound 16, ((2R,3S,4R,5S)-5-(4-aminopyrrolo[2,1-f][1,2,4]triazin-7-yl)-2-cyano-3,4-dihydroxytetrahydrofuran-2-yl)methyl 2-cyclobutylacetate] | 3 | 89 | 9.53 |
| CC(C)(C)C(=O)OC[C@@]1(C#N)O[C@@H](c2ccc3c(N)ncnn23)[C@H](O)[C@@H]1O [Compound 10, ((2R,3S,4R,5S)-5-(4-aminopyrrolo[2,1-f][1,2,4]triazin-7-yl)-2-cyano-3,4-dihydroxytetrahydrofuran-2-yl)methyl pivalate] | 123 | 269 | 8.08 |
| CCC(=O)OC[C@@]1(C#N)O[C@@H](c2ccc3c(N)ncnn23)[C@H](O)[C@@H]1O [Compound 5, ((2R,3S,4R,5S)-5-(4-aminopyrrolo[2,1-f][1,2,4]triazin-7-yl)-2-cyano-3,4-dihydroxytetrahydrofuran-2-yl)methyl propionate] | 6 | 114 | 8.89 |
| CCC(CC)C(=O)Nc1ncnn2c([C@@H]3O[C@](C#N)(COC(=O)C(CC)CC)[C@@H](O)[C@H]3O)ccc12 [Compound 11, ((2R,3S,4R,5S)-2-cyano-5-(4-(2-ethylbutanamido)pyrrolo[2,1-f][1,2,4]triazin-7-yl)-3,4-dihydroxytetrahydrofuran-2-yl)methyl 2-ethylbutanoate] | 19 | 95 | 25.2 |
| CC(C)CC(=O)OC[C@@]1(C#N)O[C@@H](c2ccc3c(N)ncnn23)[C@H](O)[C@@H]1O [Compound 3, ((2R,3S,4R,5S)-5-(4-aminopyrrolo[2,1-f][1,2,4]triazin-7-yl)-2-cyano-3,4-dihydroxytetrahydrofuran-2-yl)methyl 3-methylbutanoate] | 17 | 497 | 8.07 |
| CC(C)[C@H](N)C(=O)OC[C@@]1(C#N)O[C@@H](c2ccc3c(N)ncnn23)[C@H](O)[C@@H]1O [Compound 12, ((2R,3S,4R,5S)-5-(4-aminopyrrolo[2,1-f][1,2,4]triazin-7-yl)-2-cyano-3,4-dihydroxytetrahydrofuran-2-yl)methyl L-valinate] | 2 | 5 | 11.5 |
| N#C[C@]1(COC(=O)C2CC2)O[C@@H](c2ccc3c(N)ncnn23)[C@H](O)[C@@H]1O [Compound 7, ((2R,3S,4R,5S)-5-(4-aminopyrrolo[2,1-f][1,2,4]triazin-7-yl)-2-cyano-3,4-dihydroxytetrahydrofuran-2-yl)methyl cyclopropanecarboxylate] | 100 | 633 | 9.65 |
| CCC(CC)C(=O)OC[C@@]1(C#N)O[C@@H](c2ccc3c(N)ncnn23)[C@H](O)[C@@H]1O [Compound 9, ((2R,3S,4R,5S)-5-(4-aminopyrrolo[2,1-f][1,2,4]triazin-7-yl)-2-cyano-3,4-dihydroxytetrahydrofuran-2-yl)methyl 2-ethylbutanoate] | 57 | 510 | 8.69 |
| N#C[C@]1(COC(=O)C2CCCCC2)O[C@@H](c2ccc3c(N)ncnn23)[C@H](O)[C@@H]1O [Compound 19, ((2R,3S,4R,5S)-5-(4-aminopyrrolo[2,1-f][1,2,4]triazin-7-yl)-2-cyano-3,4-dihydroxytetrahydrofuran-2-yl)methyl cyclohexanecarboxylate] | 2 | 48 | – |
| N#C[C@]1(COC(=O)C2CCCC2)O[C@@H](c2ccc3c(N)ncnn23)[C@H](O)[C@@H]1O [Compound 18, ((2R,3S,4R,5S)-5-(4-aminopyrrolo[2,1-f][1,2,4]triazin-7-yl)-2-cyano-3,4-dihydroxytetrahydrofuran-2-yl)methyl cyclopentanecarboxylate] | 3 | 26 | 8.99 |
| N#C[C@]1(COC(=O)c2ccccc2)O[C@@H](c2ccc3c(N)ncnn23)[C@H](O)[C@@H]1O [Compound 2, ((2R,3S,4R,5S)-5-(4-aminopyrrolo[2,1-f][1,2,4]triazin-7-yl)-2-cyano-3,4-dihydroxytetrahydrofuran-2-yl)methyl benzoate] | 32 | 789 | 7.47 |
| CC1(C(=O)OC[C@@]2(C#N)O[C@@H](c3ccc4c(N)ncnn34)[C@H](O)[C@@H]2O)CC1 [Compound 15, ((2R,3S,4R,5S)-5-(4-aminopyrrolo[2,1-f][1,2,4]triazin-7-yl)-2-cyano-3,4-dihydroxytetrahydrofuran-2-yl)methyl 1-methylcyclopropane-1-carboxylate] | 123 | 789 | 8.8 |
| CC(C)(C)CC(=O)OC[C@@]1(C#N)O[C@@H](c2ccc3c(N)ncnn23)[C@H](O)[C@@H]1O [Compound 13, ((2R,3S,4R,5S)-5-(4-aminopyrrolo[2,1-f][1,2,4]triazin-7-yl)-2-cyano-3,4-dihydroxytetrahydrofuran-2-yl)methyl 3,3-dimethylbutanoate] | 408 | 755 | 10.9 |
| CC1(C)CC(C(=O)OC[C@@]2(C#N)O[C@@H](c3ccc4c(N)ncnn34)[C@H](O)[C@@H]2O)C1 [Compound 17, ((2R,3S,4R,5S)-5-(4-aminopyrrolo[2,1-f][1,2,4]triazin-7-yl)-2-cyano-3,4-dihydroxytetrahydrofuran-2-yl)methyl 3,3-dimethylcyclobutane-1-carboxylate] | – | 48 | 8.09 |
| CC(C)C(=O)OC[C@@]1(C#N)O[C@@H](c2ccc3c(N)ncnn23)[C@H](OC(=O)C(C)C)[C@@H]1OC(=O)C(C)C [Compound 20, (2R,3S,4S,5S)-5-(4-aminopyrrolo[2,1-f][1,2,4]triazin-7-yl)-2-cyano-2-((isobutyryloxy)methyl)tetrahydrofuran-3,4-diyl bis(2-methylpropanoate)] | – | 3 | 31.7 |
